This passage reports MIC results from ChEMBL document CHEMBL2203274, “Desmethyl Macrolides: Synthesis and Evaluation of 4,8-Didesmethyl Telithromycin” (2012).

What all share (format): functional
Test [1] has as its system Escherichia coli. Briefly: Antibacterial activity against Escherichia coli DK/2058G harboring 23S rRNA A2058G mutant in presence of ethanol.
Test [2] deals with Escherichia coli. Briefly: Antibacterial activity against Escherichia coli SQ171/2058G harboring 23S rRNA A2058G mutant in presence of ethanol.
Test [3] concerns Escherichia coli. Briefly: Antibacterial activity against wild type Escherichia coli DK/pKK3535 in presence of ethanol.
Test [4] concerns Staphylococcus aureus. The test can be described thus: Antibacterial activity against Staphylococcus aureus UCN14 harboring ribosomal A2058T mutant in presence of ethanol.
The subject of test [5] is Staphylococcus aureus. The test can be described thus: Antibacterial activity against Staphylococcus aureus ATCC 33591 harboring ermA mutant in presence of ethanol.
In test [6] the test system is Staphylococcus aureus. The test can be described thus: Antibacterial activity against Staphylococcus aureus ATCC 33591 harboring ermA mutant in presence of DMSO.
In test [7] the test system is Escherichia coli. The test can be described thus: Antibacterial activity against wild type Escherichia coli DK/pKK3535 in presence of DMSO.
Test [8] has as its system Staphylococcus aureus. Briefly: Antibacterial activity against Staphylococcus aureus UCN14 harboring ribosomal A2058T mutant in presence of DMSO.
In test [9] the test system is Escherichia coli. The test can be described thus: Antibacterial activity against Escherichia coli SQ171/2058G harboring 23S rRNA A2058G mutant in presence of DMSO.
Test [10] concerns Escherichia coli. Briefly: Antibacterial activity against Escherichia coli DK/2058G harboring 23S rRNA A2058G mutant in presence of DMSO.

Take `CC[C@H]1OC(=O)[C@H](C)C(=O)C[C@@H](O[C@@H]2O[C@H](C)C[C@H](N(C)C)[C@H]2O)[C@@](C)(OC)CCC(=O)C[C@H]2[C@@H]1OC(=O)N2CCCCn1cnc(-c2cccnc2)c1` [4,8,10-TRIDESMETHYL TELITHROMYCIN]: the MIC (in general, the lowest concentration that inhibits growth of the organism) in the test with Escherichia coli [1] was 64 µg/mL; with Escherichia coli [2], over 512 µg/mL; in the test with Escherichia coli [3] it was 32 µg/mL; in the test on Staphylococcus aureus [4], 32 µg/mL; with Staphylococcus aureus [5], over 128 µg/mL.

With `CC[C@H]1OC(=O)[C@H](C)C(=O)C[C@@H](O[C@@H]2O[C@H](C)C[C@H](N(C)C)[C@H]2O)[C@](C)(OC)CCC(=O)[C@H](C)[C@H]2N(CCCCn3cnc(-c4cccnc4)c3)C(=O)O[C@]12C`, the MIC in the test on Staphylococcus aureus [6] was over 64 µg/mL; with Escherichia coli [7], 4 µg/mL; in the test on Staphylococcus aureus [8] it was over 256 µg/mL; with Escherichia coli [9] it was over 512 µg/mL; with Escherichia coli [10], 32 µg/mL.

For the compound `CC[C@H]1OC(=O)[C@H](C)C(=O)[C@H](C)[C@@H](O[C@@H]2O[C@H](C)C[C@H](N(C)C)[C@H]2O)[C@](C)(OC)C[C@@H](C)C(=O)[C@H](C)[C@H]2N(CCCCn3cnc(-c4cccnc4)c3)C(=O)O[C@]12C` [TELITHROMYCIN], the MIC with Escherichia coli [1] is 1 µg/mL; in the test on Escherichia coli [2], over 512 µg/mL; with Escherichia coli [3], 0.5 µg/mL; in the test with Staphylococcus aureus [4] it was over 256 µg/mL; with Staphylococcus aureus [6], over 128 µg/mL; in the test on Escherichia coli [7], 0.5 µg/mL. Further, the MIC was over 128 µg/mL in the test on Staphylococcus aureus [8], over 128 µg/mL in the test with Staphylococcus aureus [5], over 512 µg/mL in the test on Escherichia coli [9] and 1 µg/mL with Escherichia coli [10].

`CC[C@H]1OC(=O)[C@H](C)C(=O)C[C@@H](O[C@@H]2O[C@H](C)C[C@H](N(C)C)[C@H]2O)[C@](C)(OC)C[C@@H](C)C(=O)C[C@H]2N(CCCCn3cnc(-c4cccnc4)c3)C(=O)O[C@]12C`: the MIC was over 128 µg/mL in the test on Staphylococcus aureus [6]; 8 µg/mL in the test on Escherichia coli [7]; over 256 µg/mL in the test with Staphylococcus aureus [8]; over 512 µg/mL in the test with Escherichia coli [9]; 16 µg/mL in the test on Escherichia coli [10].
